≈ marks a conversion by molar mass, not a printed value. Where a SMILES comes first, the peptide text is derived from it.
Tests used:
[1] = system: methicillin-resistant S. aureus (BAA-40); format: cell-based
Description: (§1) Antimicrobial activity of block-like copolymers PDGu(x)-b-PBLK(y) against a panel of bacteria including both Gram-positive (S. aureus and B. subtilis) and Gram-negative (E. coli) in terms of minimal inhibition concentration (MIC) were tested. […] The activity was decreased with the increase of sugar ratio. This is reasonable when considering the killing domains became less.

human red blood cells = assay: Erythrocyte compatibility assay (hemolysis)
Description: Toxicity towards mammalian cells was another vital factor for bio-applications. […] Erythrocyte compatibility assay calculating the lysis of human red blood cells (HC10, concentration of polymers causing 10% human red blood cells lysed) was performed to characterize the in vitro biocompatibility.

S. aureus (ATCC 29213) = format: cell-based
Description: as §1

E. coli (ATCC 8739) = format: cell-based
Description: as §1

MRSA USA300 = assay: In vivo murine excision wound model; design: species or system Staphylococcus aureus
Source text: Staphylococcus aureus is the most common cause for skin and soft tissue infections (SSTIs). Among those, up to three quarter are caused by community-associated MRSA (CA-MRSA). MRSA USA300 is a significant CA-MRSA pathogen in the US. According to Centers for Disease Control and Prevention of US, 212 out of 218 MRSA isolates were type USA300. To further test the in vivo efficacy of PDGu(10)-b-PBLK(10) against the clinically significant pathogen MRSA USA300, a mice wound excision model was adopted using 8 weeks female C57BL6 mice. […] This could be attributed to the excellent antibacterial efficacy of the β-peptido sugar-copolymer in vivo.
The in vivo efficacy of PDGu(10)-b-PBLK(10) was further tested against MRSA USA 300 with a murine excision wound model using two infection durations with treatments applied either 4 hour or 24 hour post infection. For treatment applied 4 hour post infection, the β-peptido sugar-copolymer achieves a log reduction of 4.1 (FIG. 8a), which is slightly better than vancomycin, which has a log reduction of 3.7. […] In contrast, vancomycin treatment only achieves 2.0 log reduction of the bacteria burden at the wound site (p≤0.01). The excellent in vivo antibacterial efficacy of PDGu(10)-b-PBLK(10) may be correlated to its outstanding in vitro killing kinetics and anti-biofilm bacteria property.
Female C57BL6 mice (Invivos, Singapore) aged 8 weeks were used for excision wound model to evaluate in vivo antimicrobial efficacy of the β-peptido sugar-copolymer. All mice were housed on a 12 hour light-dark cycle at room temperature for one week prior to the experiment. Mice (n=7 per group) were anesthetized using isoflurane and hair from the back was removed with a shaver and sterile scalpel blade. The shaved area was further sterilized using 70% ethanol and a 5 mm diameter excision wound was created using a biopsy punch. In t=4 hour post infection model, 2.5 μL MRSA USA300 in PBS suspension (5×10^5 CFU/mL) was added to wound site and covered by Tegaderm (3M™) to protect from contamination. […]

| Molecule | MIC MRSA [1] | HC10 RBC (concentration causing 10% human red blood cells lysed) (human red blood cells) | MIC SA 29213 (S. aureus (ATCC 29213)) | MIC E. coli (E. coli (ATCC 8739)) | in vivo activity compared with the β-peptido sugar-copolymer (MRSA USA300; mice wound excision model, MRSA USA300) | log reduction of MRSA USA300 (MRSA USA300; treatment applied 4 hour post infection, single dose 2.5 mg/kg (FIG. 8a)) | log reduction of total bacteria count (MRSA USA300; treatment initiated 24 hour post infection, three times with 4-hour interval, 2.5 mg/kg (FIG. 8b)) |
| --- | --- | --- | --- | --- | --- | --- | --- |
| CC[C@H](C)[C@H](NC(=O)[C@H](CCCCN)NC(=O)[C@H](CCC(=O)O)NC(=O)[C@H](CCCCN)NC(=O)[C@H](CO)NC(=O)[C@H](CCCCN)NC(=O)[C@H](CCCNC(=N)N)NC(=O)[C@H](Cc1ccccc1)NC(=O)[C@H](Cc1ccccc1)NC(=O)[C@H](CC(=O)O)NC(=O)CNC(=O)[C@H](CC(C)C)NC(=O)[C@@H](N)CC(C)C)C(=O)NCC(=O)N[C@@H](CCCCN)C(=O)N[C@@H](CCC(=O)O)C(=O)N[C@@H](Cc1ccccc1)C(=O)N[C@@H](CCCCN)C(=O)N[C@@H](CCCNC(=N)N)C(=O)N[C@H](C(=O)N[C@H](C(=O)N[C@@H](CCC(N)=O)C(=O)N[C@@H](CCCNC(=N)N)C(=O)N[C@H](C(=O)N[C@@H](CCCCN)C(=O)N[C@@H](CC(=O)O)C(=O)N[C@@H](Cc1ccccc1)C(=O)N[C@@H](CC(C)C)C(=O)N[C@@H](CCCNC(=N)N)C(=O)N[C@@H](CC(N)=O)C(=O)N[C@@H](CC(C)C)C(=O)N[C@H](C(=O)N1CCC[C@H]1C(=O)N[C@@H](CCCNC(=N)N)C(=O)N[C@H](C(=O)N[C@@H](CCC(=O)O)C(=O)N[C@@H](CO)C(=O)O)[C@@H](C)O)C(C)C)[C@@H](C)CC)C(C)C)[C@@H](C)CC [LL37] | >512 µg/mL |  |  |  |  |  |  |
| CC[C@H](C)[C@H](NC(=O)CN)C(=O)NCC(=O)N[C@@H](C)C(=O)N[C@H](C(=O)N[C@@H](CC(C)C)C(=O)N[C@@H](CCCCN)C(=O)N[C@H](C(=O)N[C@@H](CC(C)C)C(=O)N[C@H](C(=O)N[C@H](C(=O)NCC(=O)N[C@@H](CC(C)C)C(=O)N1CCC[C@H]1C(=O)N[C@@H](C)C(=O)N[C@@H](CC(C)C)C(=O)N[C@H](C(=O)N[C@@H](CO)C(=O)N[C@@H](Cc1c[nH]c2ccccc12)C(=O)N[C@H](C(=O)N[C@@H](CCCCN)C(=O)N[C@@H](CCCNC(=N)N)C(=O)N[C@@H](CCCCN)C(=O)N[C@@H](CCCNC(=N)N)C(=O)N[C@@H](CCC(N)=O)C(=O)N[C@@H](CCC(N)=O)C(N)=O)[C@@H](C)CC)[C@@H](C)CC)[C@@H](C)O)[C@@H](C)O)C(C)C)C(C)C [Melittin] |  | 8 µg/mL |  |  |  |  |  |
| Polymyxin B | 64 µg/mL | >2500 µg/mL | 32 µg/mL | 2 µg/mL |  |  |  |
| CN[C@H](CC(C)C)C(=O)N[C@H]1C(=O)N[C@@H](CC(N)=O)C(=O)N[C@H]2C(=O)N[C@H]3C(=O)N[C@H](C(=O)N[C@H](C(=O)O)c4cc(O)cc(O)c4-c4cc3ccc4O)[C@H](O)c3ccc(c(Cl)c3)Oc3cc2cc(c3O[C@@H]2O[C@H](CO)[C@@H](O)[C@H](O)[C@H]2O[C@H]2C[C@](C)(N)[C@H](O)[C@H](C)O2)Oc2ccc(cc2Cl)[C@H]1O [vancomycin] |  |  |  |  | does not show superior activity | 3.7 log | 2.0 log |
| CC[C@H](C)[C@H](NC(=O)CN)C(=O)NCC(=O)N[C@@H](CCCCN)C(=O)N[C@@H](Cc1ccccc1)C(=O)N[C@@H](CC(C)C)C(=O)N[C@@H](Cc1c[nH]cn1)C(=O)N[C@@H](CO)C(=O)N[C@@H](C)C(=O)N[C@@H](CCCCN)C(=O)N[C@@H](CCCCN)C(=O)N[C@@H](Cc1ccccc1)C(=O)NCC(=O)N[C@@H](CCCCN)C(=O)N[C@@H](C)C(=O)N[C@@H](Cc1ccccc1)C(=O)N[C@H](C(=O)NCC(=O)N[C@@H](CCC(=O)O)C(=O)N[C@H](C(=O)N[C@@H](CCSC)C(=O)N[C@@H](CC(N)=O)C(=O)N[C@@H](CO)C(=O)O)[C@@H](C)CC)C(C)C [Magainin 2] (H-GIGKFLHSAKKFGKAFVGEIMNS-OH) | >512 µg/mL | >500 µg/mL | >512 µg/mL | 64 µg/mL (≈ 25.9 µM) |  |  |  |

From patent publication US11970576B2, “Beta-peptido sugar-copolymer” (NANYANG TECHNOLOGICAL UNIVERSITY, priority 2017, dated 2024)
